Test results from ChEMBL document CHEMBL4814005, “Pragmatic recruitment of memantine as the capping group for the design of HDAC inhibitors: A preliminary attempt to unravel the enigma of glioblastoma” (Eur J Med Chem, 2021).
Calls of active or inactive are those of the source. No cut-off for these calls is given here.

What was measured:
[1] = tested on: Glioblastoma cell line; test: Cytotoxicity against human glioblastoma cell P1S cells assessed as reduction in cell viability upto 72 hrs by MTT assay; type: functional, cell-based; details: dose microM <=30, time hrs <=72
[2] = tested on: A 172; test: Cytotoxicity against human A 172 cells assessed as reduction in cell viability upto 30 uM by MTT assay; type: functional, cell-based; details: dose microM <=30, time hrs <=72, TDE = time-dependent effect
[3] = tested on: Glioblastoma cell line; test: Cytotoxicity against TMZ-resistant human glioblastoma cell P5 cells assessed as reduction in cell viability upto 30 uM by MTT assay; type: functional, cell-based; details: dose microM <=30, time hrs <=72, TDE = time-dependent effect
[4] = target: Histone deacetylase 1 (Homo sapiens, UniProt Q13547); test: Inhibition of human recombinant HDAC1 expressed in baculovirus infected insect cells using [RHKK(Ac)] fluorogenic substrate
Histone deacetylase 1, sequence (Q13547 whole entry): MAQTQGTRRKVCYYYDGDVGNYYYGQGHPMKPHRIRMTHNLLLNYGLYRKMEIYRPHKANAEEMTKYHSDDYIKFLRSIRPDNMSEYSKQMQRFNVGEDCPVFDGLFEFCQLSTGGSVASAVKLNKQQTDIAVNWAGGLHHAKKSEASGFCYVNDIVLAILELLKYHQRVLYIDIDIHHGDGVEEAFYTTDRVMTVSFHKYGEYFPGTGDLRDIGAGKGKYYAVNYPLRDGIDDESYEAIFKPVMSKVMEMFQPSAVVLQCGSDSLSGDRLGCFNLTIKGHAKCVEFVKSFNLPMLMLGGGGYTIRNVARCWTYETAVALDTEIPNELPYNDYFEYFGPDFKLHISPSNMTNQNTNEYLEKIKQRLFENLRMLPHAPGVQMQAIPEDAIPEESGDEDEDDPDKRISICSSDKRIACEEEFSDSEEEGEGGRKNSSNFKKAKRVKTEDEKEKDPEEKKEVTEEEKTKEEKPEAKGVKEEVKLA

[5] = Permeability of compound by PAMPA-BBB assay
[6] = tested on: U-87 MG; test: Cytotoxicity against human U-87 MG cells assessed as reduction in cell viability upto 30 uM by MTT assay; type: functional, cell-based; details: U-87MG ATCC, dose microM <=30, time hrs <=72, TDE = time-dependent effect
[7] = tested on: Glioblastoma cell line; test: Cytotoxicity against human glioblastoma cell P5 cells assessed as reduction in cell viability upto 30 uM by MTT assay; type: functional, cell-based; details: dose microM <=30, time hrs <=72, TDE = time-dependent effect
[8] = target: T1, Protein deacetylase HDAC6 (Homo sapiens, UniProt Q9UBN7); test: Inhibition of human recombinant HDAC6 expressed in baculovirus infected insect cells using [RHKK(Ac)] fluorogenic substrate
T1 sequence (Q9UBN7 whole entry): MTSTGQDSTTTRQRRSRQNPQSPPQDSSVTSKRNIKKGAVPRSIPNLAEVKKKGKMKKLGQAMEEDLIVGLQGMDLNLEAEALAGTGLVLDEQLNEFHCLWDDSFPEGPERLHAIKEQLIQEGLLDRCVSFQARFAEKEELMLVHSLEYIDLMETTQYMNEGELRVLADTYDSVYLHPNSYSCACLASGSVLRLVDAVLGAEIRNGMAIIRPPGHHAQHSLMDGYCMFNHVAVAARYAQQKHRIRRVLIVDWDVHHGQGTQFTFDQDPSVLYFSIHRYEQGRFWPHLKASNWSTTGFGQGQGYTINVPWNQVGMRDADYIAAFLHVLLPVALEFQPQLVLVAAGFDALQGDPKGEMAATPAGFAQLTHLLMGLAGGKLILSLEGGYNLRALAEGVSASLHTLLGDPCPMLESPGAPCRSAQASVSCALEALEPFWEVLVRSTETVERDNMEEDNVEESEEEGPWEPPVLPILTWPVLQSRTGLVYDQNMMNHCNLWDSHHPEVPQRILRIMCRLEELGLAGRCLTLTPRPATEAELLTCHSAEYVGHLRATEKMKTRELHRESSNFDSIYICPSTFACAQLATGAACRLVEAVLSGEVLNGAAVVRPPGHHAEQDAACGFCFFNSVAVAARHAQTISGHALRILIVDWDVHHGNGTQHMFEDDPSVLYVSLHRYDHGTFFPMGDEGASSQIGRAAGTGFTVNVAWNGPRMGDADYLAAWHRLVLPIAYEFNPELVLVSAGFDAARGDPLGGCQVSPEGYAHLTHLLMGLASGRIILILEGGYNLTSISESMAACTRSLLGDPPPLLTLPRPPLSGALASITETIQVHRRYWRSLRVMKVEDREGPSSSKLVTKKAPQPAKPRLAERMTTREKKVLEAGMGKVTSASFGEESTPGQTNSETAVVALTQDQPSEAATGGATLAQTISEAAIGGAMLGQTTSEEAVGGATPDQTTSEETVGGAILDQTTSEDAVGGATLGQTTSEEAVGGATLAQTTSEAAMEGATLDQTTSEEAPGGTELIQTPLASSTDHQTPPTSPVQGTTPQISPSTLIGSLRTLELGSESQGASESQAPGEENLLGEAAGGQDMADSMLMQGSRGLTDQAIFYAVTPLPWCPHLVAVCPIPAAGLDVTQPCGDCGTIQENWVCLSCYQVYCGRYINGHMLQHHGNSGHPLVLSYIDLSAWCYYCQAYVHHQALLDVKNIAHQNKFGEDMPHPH

[9] = tested on: Glioblastoma cell line; test: Cytotoxicity against human glioblastoma cell P3 cells assessed as reduction in cell viability upto 72 hrs by MTT assay; type: functional, cell-based; details: dose microM <=30, time hrs <=72
[10] = tested on: U-87 MG; test: Antiproliferation activity against human U-87 MG cells assessed as growth inhibition at 10 uM after 3 days by MTT assay; type: functional, U-87MG ATCC; details: 72 h, time 3 day
[11] = tested on: Glioblastoma cell line; test: Cytotoxicity against human glioblastoma cell P5 cells assessed as reduction in cell viability upto 72 hrs by MTT assay; type: functional, cell-based; details: dose microM <=30, time hrs <=72
[12] = tested on: U-87 MG; test: Antitumor activity in TMZ-resistant human U-87 MG cells transplanted in BALB/C mouse assessed as increase in mouse survival at 10 mg/kg, ip measured for every 2 days measured for 40 days; type: functional, organism-based; details: U-87MG ATCC, time 40.0 day
[13] = target: T2, Histone deacetylase 8 (Homo sapiens, UniProt Q9BY41); test: Inhibition of human recombinant HDAC8 using [RHKK(Ac)] fluorogenic substrate
T2 sequence (Q9BY41 whole entry): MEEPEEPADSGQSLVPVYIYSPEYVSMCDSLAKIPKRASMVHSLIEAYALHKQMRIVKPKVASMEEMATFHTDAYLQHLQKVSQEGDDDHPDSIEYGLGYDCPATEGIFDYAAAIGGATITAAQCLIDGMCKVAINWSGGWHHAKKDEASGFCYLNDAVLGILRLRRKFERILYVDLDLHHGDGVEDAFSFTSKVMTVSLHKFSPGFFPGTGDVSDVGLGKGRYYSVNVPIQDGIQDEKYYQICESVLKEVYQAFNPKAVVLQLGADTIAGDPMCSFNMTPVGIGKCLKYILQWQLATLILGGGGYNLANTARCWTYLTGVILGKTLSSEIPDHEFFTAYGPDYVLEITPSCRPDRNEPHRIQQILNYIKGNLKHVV

[14] = tested on: A 172; test: Induction of cell cycle arrest in human A 172 cells assessed as increase in histone H3-K9/K14 acetylation upto 10 uM for 24 hrs by Western blot analysis; type: functional, cell-based; details: dose microM <=10, time 24.0 hrs

IC50 [4]: 347 nM
Papp [5]: 339 ×10⁻⁶ cm/s
IC50 [8]: 5.42 nM
IC50 [13]: 638 nM
SMILES: CC12CC3CC(C)(C1)CC(NCc1ccc(NC(=O)CCCCCCC(=O)NO)cc1)(C3)C2
Activity [1]: Dose-Dependent Effect
Activity [2]: Tde
Activity [3]: Tde
Activity [6]: Tde
Activity [7]: Tde
Activity [9]: Dose-Dependent Effect
inhibition at 10 µM [10]: 90%
Activity [11]: Dose-Dependent Effect
Activity [12]: Active
Activity [14]: Active
